Test results published in patent publication US20210275545A1, “METHOD OF TREATING CANCER PREFERABLY CHARACTERIZED BY EXPRESSION OF A FUSION PROTEIN COMPRISING A MEMBER OF THE E-TWENTY-SIX FAMILY BY ADMINISTERING AN AGENT THAT INHIBITS THE SYNTHESIS AND/OR ACTIVITY OF CORTISOL” (Yeda Research and Development Co. Ltd., priority 2018, published 2021).

Legend:
[1] = tested on: RD-ES tumors; experiment: Immunoblotting of RD-ES tumor extracts; type: in vivo, SCID mice
Experimental: FIGS. 13A-B: A GR antagonist and a cortisol-lowering drug induce markers of cell death in animal models of Ewing's sarcoma. (A) RD-ES tumors presented in FIG. 6A were extracted and analyzed using immunoblotting and the indicated antibodies. Note that tumors from three different mice per group were analyzed. (B) Whole extracts prepared from the tumors presented in FIG. 6D were analyzed using immunoblotting and the indicated antibodies. Note that tumors from three different mice per group were analyzed.
ES animal model studies: All animal experiments were approved by the Weizmann Institute's Animal Care and Use Committee. RD-ES cells and A673 cells (2.5×10^6) were inoculated subcutaneously in the right legs of female SCID mice (6 weeks old). Tumor growth was monitored once every 3 days using a caliper. […] Mice were euthanized when tumor size reached 800-900 mm^3. For metastasis assays, luciferase-labeled TC-71 cells (10^6) were injected orthotopically into the tibia of female SCID mice. Once the primary tumor reached the allowed size limit, we excised the lungs and examined metastases using luciferase bioluminescence imaging.

[2] = tested on: glucocorticoid response element (GRE); conditions: DEX and RU486 each at 100 nM, 24 hours
Experimental: HEK-293T cells (1.2×10^4) were seeded in 48-well plates. […] In addition, cells were co-transfected with increasing amounts of a GR expression vector (A), a FLI1-encoding vector (B) or with a combination of both a FLI1 vector and a vector encoding GR, either wild type (C) or a mutant receptor (GRdim−, panel D). Luciferase activity was determined, in biological triplicates, 48 hours later and presented in bar plots. Cells that were pre-transfected with the reporter plasmid were used for normalization. *, p≤0.05; ***, p≤0.001. […] This was followed by cell lysis and determination of luciferase activity in biological triplicates.
Luciferase-reporter assays: Cells were co-transfected with a luciferase plasmid containing the consensus glucocorticoid response element (GRE) along with pGL3-Control (Promega, Madison, Wis.). Luciferase activity was determined using the dual-luciferase reporter assay system (Promega). Firefly luciferase luminescence values were normalized to Renilla luminescence.

[3] = molecular target: GR and EWS-FLI1 (Homo sapiens, UniProt P04150); conditions: DEX 1 μM, RU486 1 μM, 60 minutes
Experimental: (A) CHLA9 cells were seeded in 100-mm dishes. Once they reached sub-maximal density, cells were starved overnight for serum factors. […] Cells were then extracted and the lysates were processed for co-immunoprecipitation assays using an antibody against GR followed by immunobloting that used an antibody against EWS. The image shown is representative of 3 biological replicates. Signals were quantified and normalized (see numbers below each lane). EB, empty beads. […] (C-D) CHLA9 cells were seeded on the upper faces of either Transwell migration chambers or Matrigel-coated invasion chambers, and further incubated for 20 hours in full medium. Control siRNAs or siRNAs specific to either GR or EWS-FLI1 were added to cells 24 hours prior to seeding, and both cell migration and invasion were measured 20 hours later. […] Cells that reached the lower faces of the chambers were fixed and stained. Shown are representative images of stained cells. The bar plots show quantification, using ImageJ, of the area covered by cells. *, p≤0.05, **, p≤0.005. Bars, 500 μm. […] The bar plots show quantification, using ImageJ, of the area covered by cells. *, p≤0.05, **, p≤0.005. […]
(A) RD-ES cells were seeded in 100-mm dishes. […] Cell migration/invasion was determined 20 hours later.

[4] = tested on: CHLA9, A673 and RD-ES cells; experiment: MTT cell viability assay, three ES lines; type: cell-based; conditions: increasing concentrations, 24 hours
Experimental: FIGS. 12A-F: Inhibition of GR activity decreases growth and survival of Ewing's sarcoma cells. […] (B) Increasing concentrations of D06, a non-steroidal antagonist of GR [54], were incubated with A673 cells as in A and the MTT assay was performed in triplicates. *, p<0.05. […] Note that the abundance of the endogenous form of FLI1 is much weaker than that of EWS-FLI1. […] MTT assays were performed after 48 hours of treatment. The assay was repeated twice in quadruplets. **, p<0.01, ***, p<0.001. (E) A673 cells were seeded in 100-mm dishes. […] Shown are results of an apoptosis assay performed using an annexinV/7-AAD kit (BioLegend, Inc.). Quantification of the fractions of early and late apoptotic cells is shown in bar plots. The experiment was repeated twice. (F) The indicated ES cells were sparsely seeded in 6-well plates. […] Ten days later, cells were fixed and stained with crystal violet to visualize emerging colonies. Photos are shown along with bar plots showing the quantification of colonies in 5 non-overlapping microscope fields. The experiment was repeated twice. *, p≤0.05; **, p≤0.001.
According to recent reports, the EWS-FLI1 fusion promotes cell cycle progression and inhibits apoptosis. […] Next, siRNA specific to the FLI1 region of the fusion (FIG. 12C) were analyzed in A673 cells. […]

[5] = tested on: RD-ES xenograft; experiment: RD-ES xenograft tumor growth and KI67 staining; type: in vivo, SCID mice; conditions: 1 mg/kg daily
Source text: FIGS. 6A-E. A GR antagonist and a cortisol-lowering drug impede growth of human xenograft models of Ewing's sarcoma. (A) RD-ES cells (2×10^6) were implanted subcutaneously in the right flank of SCID mice. Once tumors reached an approximate size of 150 mm^3, animals were randomized into three groups (n=10). […] The means of tumor volumes (+SEM) are shown. […] (B) Shown are representative images of immunofluorescent staining for KI67 in paraffin-embedded sections of tumors from A, using an antibody against KI67. Scale bars, 100 μm. Also shown is the scatter plot depicting quantification of KI67 staining in randomly selected 4 fields of a representative tumor from each group. […] (C and D) A673 cells (2×10^6) were implanted in female SCID mice. Once tumors reached the size of 150 mm^3, animals were randomized into two groups (n=9). Each group was daily treated with either vehicle, or Metyrapone (25 mg/kg) and tumorigenic growth was monitored. Actual tumor volumes (±SEM) are presented. Also shown are tumors harvested from each group of animals; **p<0.001. […] Luminescence was quantified and presented in a bar graph.
ES animal model studies: All animal experiments were approved by the Weizmann Institute's Animal Care and Use Committee. […] Tumor growth was monitored once every 3 days using a caliper. […]

[6] = tested on: A673 cells; experiment: MTT cell viability assay, A673 cells; type: cell-based; conditions: FLI1 silenced A673 cells; RU486 10 μM, 48 hours

Sequence of GR and EWS-FLI1 (P04150 whole entry): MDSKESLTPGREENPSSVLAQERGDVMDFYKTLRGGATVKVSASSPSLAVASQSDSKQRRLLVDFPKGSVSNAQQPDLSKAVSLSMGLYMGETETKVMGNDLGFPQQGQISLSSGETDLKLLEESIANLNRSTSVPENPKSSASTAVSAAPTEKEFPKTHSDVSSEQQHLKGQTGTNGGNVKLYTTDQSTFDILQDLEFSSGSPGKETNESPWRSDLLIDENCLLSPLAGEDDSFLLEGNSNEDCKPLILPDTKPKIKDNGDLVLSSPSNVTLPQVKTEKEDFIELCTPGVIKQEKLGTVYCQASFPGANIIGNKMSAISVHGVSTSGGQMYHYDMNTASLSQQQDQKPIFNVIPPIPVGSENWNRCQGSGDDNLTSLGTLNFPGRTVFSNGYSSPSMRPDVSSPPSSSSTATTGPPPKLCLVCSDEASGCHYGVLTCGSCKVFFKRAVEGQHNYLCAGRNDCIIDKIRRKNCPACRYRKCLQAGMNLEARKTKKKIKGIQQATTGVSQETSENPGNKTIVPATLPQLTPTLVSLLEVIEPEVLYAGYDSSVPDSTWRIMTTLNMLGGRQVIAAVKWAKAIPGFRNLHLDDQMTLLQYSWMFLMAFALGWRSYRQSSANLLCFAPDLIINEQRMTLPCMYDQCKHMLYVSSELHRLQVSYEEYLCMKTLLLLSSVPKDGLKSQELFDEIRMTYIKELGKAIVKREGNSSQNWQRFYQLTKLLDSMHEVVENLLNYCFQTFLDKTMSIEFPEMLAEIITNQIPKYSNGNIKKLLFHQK

CC#C[C@]1(O)CC[C@H]2[C@@H]3CCC4=CC(=O)CCC4=C3[C@@H](c3ccc(N(C)C)cc3)C[C@@]21C [RU486, Mifepristone]
AKT survival pathway in tumors [1]: inhibited
LC3B-I abundance in tumors [1]: increased abundance
activation of caspase 3 in tumors [1]: no clear activation
larger isoform of BIM in tumors [1]: up-regulation
p21 abundance in tumors ([1]; three mice per group): increased abundance
p27 abundance in tumors ([1]; three mice per group): increased abundance
effect of co-treatment on DEX-induced GRE activity [2]: inhibitory
GR/EWS-FLI1 co-immunoprecipitation, CHLA9 cells ([3]; CHLA9 cells): completely
GR/EWS-FLI1 co-immunoprecipitation, RD-ES cells ([3]; RD-ES cells): partially
survival of ES cell lines (MTT) [4]: dose-dependent reduction
tumor growth [5]: significantly slower tumor growth
KI67 staining of tumor sections (proliferation) ([5]; relative to control group): slower proliferation rates
fraction of metabolically active cells (MTT) after EWS-FLI1 knockdown [6]: further reduced
